This is an account of results in ChEMBL document CHEMBL1201862, “PubChem BioAssay data set” (2004).

Holding throughout (assay): DTP human tumour cell line panel, 48 h
For assay [1], the system named is EKVX.
Assay [2] relates to NCI-H522.
Assay [3] deals with HT-29.
For assay [4], the system named is SK-OV-3.
Assay [5] deals with NCI-H226.
Assay [6] concerns SF-268.
For assay [7], the system named is LOX IMVI.
Assay [8] concerns M14.
For assay [9], the system named is U-251.
Assay [10] relates to OVCAR-3.
Assay [11] has as its system HOP-62.
Assay [12] has as its system HOP-92.
Assay [13] concerns UACC-257.
For assay [14], the system named is BT-549.
For assay [15], the system named is SN12C.
Assay [16] relates to RPMI-8226.
For assay [17], the system named is OVCAR-5.
Assay [18] deals with Hs-578T.
Assay [19] deals with SR.
Assay [20] relates to CCRF-CEM.

SMILES strings stand for the structures.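 96-well plates; 48 h exposure; 5 concentrations. Endpoints by linear interpolation between flanking doses. Not reached: highest tested concentration assigned. Abbreviation: GI50, concentration required for 50% inhibition of growth.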 Calls of active or inactive are those of the source. Cut-off read from the data, not from the text of the source: active = GI50 up to about 1.1 µM and inactive = higher.

As to `NNC(=O)c1ccc[n+](CCc2ccccc2)c1`, the GI50 in assay [1], in assay [2], in assay [3], in assay [4], in [5] and in assay [6] was > 100 µM (inactive) in each case. Moreover, the GI50 in assay [7], in assay [8], in [9], in [10], in assay [11] and in [12] was > 100 µM (inactive) each time. Moreover, the GI50 in assay [13], in assay [14], in [15], in assay [16], in assay [17] and in [18] was > 100 µM (inactive) each time.

In the case of `Cc1ccc(/N=C2\OP(=O)(Nc3ccc(C)cc3)Oc3ccccc32)cc1` (stereo not drawn), the GI50 in [1], in assay [3], in assay [19], in assay [4], in [5] and in assay [6] was > 100 µM (inactive) each time. The GI50 in assay [7] was > 100 µM (inactive); in [8] it was 29.3 µM (inactive); in [9], > 100 µM (inactive); in [10] it was > 100 µM (inactive); in assay [11] it was > 100 µM (inactive); in assay [12], 30 µM (inactive). Also, the GI50 in assay [13], in [20], in assay [14], in [15], in assay [17] and in assay [18] was > 100 µM (inactive) in each case.

As for `O=C(c1cc(Cl)cc(Cl)c1)N(C(=O)N1CCN(c2ccccc2)CC1)c1ccccc1`, the GI50 was 20.7 µM (inactive) in assay [1]; 16.4 µM (inactive) in [2]; 25.6 µM (inactive) in assay [3]; 96.6 µM (inactive) in [4]; 22.8 µM (inactive) in assay [5]; 43.1 µM (inactive) in [6]. Moreover, the GI50 in assay [7] is 36.5 µM (inactive); in assay [8] it was 27.6 µM (inactive); in assay [9] it was 39.7 µM (inactive); in assay [10] it was 66.1 µM (inactive); in [11], 87.1 µM (inactive); in assay [12], 34.5 µM (inactive). Moreover, the GI50 was 28.9 µM (inactive) in assay [13]; 22.5 µM (inactive) in assay [20]; 48.1 µM (inactive) in assay [14]; 55.6 µM (inactive) in assay [15]; 22.3 µM (inactive) in assay [17]; 56.1 µM (inactive) in assay [18].

For `COC(=O)c1csc(-c2csc(CCNC(=O)OC(C)(C)C)n2)n1`, the GI50 is > 100 µM (inactive) in assay [1]; > 100 µM (inactive) in [3]; 59.7 µM (inactive) in [19]; > 100 µM (inactive) in assay [4]; > 100 µM (inactive) in [5]; > 100 µM (inactive) in [6]. Besides, the GI50 in assay [8], in [9], in [10], in [11], in [12] and in assay [13] was > 100 µM (inactive) throughout. The GI50 in [20] was 43.5 µM (inactive); in assay [14], 40.4 µM (inactive); in assay [15] it was > 100 µM (inactive); in assay [16], > 100 µM (inactive); in assay [17], > 100 µM (inactive); in assay [18] it was > 100 µM (inactive).

Regarding `COc1ccc2c(c1)CCC/C2=N\NS(=O)(=O)c1c(C)cc(C)cc1C`, the GI50 in assay [1] is 23.2 µM (inactive); in [3] it was 20.7 µM (inactive); in assay [19], 20.2 µM (inactive); in [5], 22.2 µM (inactive); in [7], 19.4 µM (inactive); in [8] it was 33.2 µM (inactive). Further, the GI50 in [9] is 31.6 µM (inactive); in assay [10] it was 32.4 µM (inactive); in assay [11], 43.4 µM (inactive); in assay [12], 20.3 µM (inactive); in assay [13], 39.2 µM (inactive); in [20] it was 27.1 µM (inactive). Moreover, the GI50 was 28.9 µM (inactive) in assay [14], 21.8 µM (inactive) in assay [15], 39.6 µM (inactive) in assay [17] and 30.6 µM (inactive) in [18].

As to `c1cncc(-c2ncc3cccnc3n2)c1`, the GI50 in [1], in assay [2], in [3], in assay [4], in assay [5] and in assay [7] was > 100 µM (inactive) each time. Besides, the GI50 in [9], in assay [10], in assay [11], in [12], in assay [13] and in assay [20] was > 100 µM (inactive) in each case. In addition, the GI50 in [14], in assay [15], in assay [16], in assay [17] and in [18] was > 100 µM (inactive) throughout.

For the molecule `O=C1Nc2ccccc2C1Cc1ccc([N+](=O)[O-])cc1` (stereo not drawn), the GI50 in assay [1] was > 100 µM (inactive); in assay [2], 35.9 µM (inactive); in [3], > 100 µM (inactive); in assay [19], 19.4 µM (inactive); in assay [4], > 100 µM (inactive); in [5], > 100 µM (inactive). Moreover, the GI50 in assay [6], in assay [7], in [8], in assay [9], in assay [10] and in assay [11] was > 100 µM (inactive) throughout. Further, the GI50 was > 100 µM (inactive) in [13]; 20.1 µM (inactive) in assay [20]; > 100 µM (inactive) in assay [14]; > 100 µM (inactive) in assay [15]; 34.8 µM (inactive) in [16]; > 100 µM (inactive) in assay [17]. In assay [18], the GI50 was 63.4 µM (inactive).

As for `CC(C)OP(=O)(OC(C)C)C(C(C)C)N(C)/C(F)=N/C(F)(F)F` (stereo not drawn), the GI50 in [1], in assay [2], in [3], in assay [4], in [5] and in [6] was > 100 µM (inactive) in each case. The GI50 in assay [7], in [8], in [9], in [10], in assay [11] and in assay [12] was > 100 µM (inactive) in each case. Further, the GI50 in [13], in [20], in assay [14], in assay [15], in [17] and in assay [18] was > 100 µM (inactive) each time.

As for `O=C(O)C1C(C(=O)Nc2ccc3c(c2)Cc2ccccc2-3)C2(Cl)C(Cl)=C(Cl)C1(Cl)C2(Cl)Cl` (stereo not drawn), the GI50 in assay [1] is 34.4 µM (inactive); in assay [2] it was 18.6 µM (inactive); in assay [3], 20.3 µM (inactive); in assay [4], 45.5 µM (inactive); in assay [5], 29 µM (inactive); in assay [6], 26.2 µM (inactive). For the same molecule, the GI50 in assay [7] was 18.4 µM (inactive); in assay [8], 20.4 µM (inactive); in [9], 15.2 µM (inactive); in assay [10] it was 17.6 µM (inactive); in assay [11], 31.2 µM (inactive); in assay [12], 21.5 µM (inactive). Moreover, the GI50 in assay [13] was 20.6 µM (inactive); in assay [20] it was 18.7 µM (inactive); in [14], 19.1 µM (inactive); in [15], 33.3 µM (inactive); in assay [16] it was 14.6 µM (inactive); in assay [17], 20.4 µM (inactive). For the same molecule, the GI50 in assay [18] is 19.9 µM (inactive).

Turning to `C/C(=N/NC(=S)N1CCN(C(=S)N/N=C(/C)c2ccccn2)CC1)c1ccccn1`, the GI50 is 15.6 µM (inactive) in assay [1]; 7.64 µM (inactive) in [2]; 7.33 µM (inactive) in assay [3]; 8.3 µM (inactive) in assay [4]; 6.89 µM (inactive) in assay [5]; 3.03 µM (inactive) in assay [6]. The GI50 in assay [7] is 5.94 µM (inactive); in assay [8], 4.47 µM (inactive); in assay [9], 8.89 µM (inactive); in [10] it was 3.01 µM (inactive); in [11], 10 µM (inactive); in assay [12], > 46.2 µM (inactive). The GI50 in assay [13] was 16.3 µM (inactive); in assay [20] it was 0.682 µM (active); in [14], 15.9 µM (inactive); in assay [15], 8.65 µM (inactive); in assay [16], 12.1 µM (inactive); in [17], > 66.8 µM (inactive). Also, in [18], the GI50 is > 38 µM (inactive).

Regarding `Oc1ccc([C@H]2c3c(O)cc(O)cc3C3c4c(cc(O)cc4[C@@H]2[C@H]2c4cc(O)cc5c4C(c4cc(O)cc(O)c4[C@@H]2c2ccc(O)cc2)[C@@H](c2ccc(O)cc2)O5)O[C@@H]3c2ccc(O)cc2)cc1` (stereo partly drawn), the GI50 in assay [1] was 0.29 µM (active); in [2] it was 7.45 µM (inactive); in assay [3], 0.861 µM (active); in assay [19], 16.9 µM (inactive); in assay [5], > 100 µM (inactive); in [6], 1.61 µM (inactive). Also, the GI50 in assay [7] is 2.41 µM (inactive); in [8] it was 6.25 µM (inactive); in assay [9], 3.55 µM (inactive); in assay [10], 0.569 µM (active); in [11] it was 1.09 µM (active); in [13] it was 0.356 µM (active). Moreover, the GI50 in assay [20] was 1.53 µM (inactive); in assay [14] it was > 100 µM (inactive); in assay [15], > 100 µM (inactive); in [16], 41.4 µM (inactive); in assay [17], 0.678 µM (active); in [18], 0.0497 µM (active).
